Measured values from patent US8901118B2, “Compounds and methods for kinase modulation, and indications therefor” (Plexxikon Inc., priority 2010, dated 2014).

What was measured:
TrkA kinase = TrkA kinase (Homo sapiens, UniProt P04629); test: TrkA kinase biochemical activity assay (AlphaScreen); conditions: 100 μM ATP; read-out: Biochemical Inhibition IC50 TrkA
Method: In one assay the biochemical activity IC50 values are determined with respect to inhibition of TrkA kinase activity, where inhibition of phosphorylation of a peptide substrate is measured as a function of compound concentration. Compounds to be tested, dissolved in DMSO (1 μL), are added to a white 384-well plate (Costar #3705). Working stocks of TrkA kinase (UBI), biotin-(E4Y)10 substrate (Upstate Biotech, Cat#12-440), and ATP (Sigma, Cat#A-3377) are prepared in 25 mM Hepes pH 7.5, 10 mM MnCl2, 1 mM DTT, 0.01% BSA, and 0.01% Tween-20. All components are added to the 384-well plate for a final concentration of 1 ng/well TrkA, 30 nM biotin-(E4Y)10 and 100 μM ATP in a volume of 20 μL. Each sample is at 5% DMSO. The plate is shaken for 1 minute at 1200 rpm, spun for 1 minute at 1000 rpm, then incubated for 40 minutes at room temperature. Just before use, working stocks of donor and acceptor beads from the AlphaScreen PY20 Detection Kit (PerkinElmer, Cat#676601M) are prepared in 25 mM Hepes pH 7.5, 100 mM EDTA. 0.01% BSA. Donor Beads solution (Streptavidin beads) is added (5 μL) to each well to final bead concentration of 10 μg/mL. The plate is incubated at room temperature for 20 minutes. Acceptor Beads solution (PY20 coated beads) are then added to each well (5 μL) to a final concentration of bead at 10 μg/mL. The plates are incubated at room temperature for 60 minutes. Fluorescence signal is recorded on the Envision reader. Phosphorylated substrate results in binding of the PY20 antibody and association of the donor and acceptor beads such that signal correlates with kinase activity. The signal vs. compound concentration is used to determine the IC50. Similar assays are used for TrkB and Trk C kinase.

[1] = Relative solubility by turbidity in aqueous buffers (pH 1.5, 4.5, 6.8, 7.4); type: physicochemical; conditions: for turbidity threshold (L, M, H) 1.4: pH 1.5 (SGF); for turbidity threshold (L, M, H) 4.5: pH 4.5 (SIF); for turbidity threshold (L, M, H) 6.8: pH 6.8 (SIF); for turbidity threshold (L, M, H) 7.4: pH 7.4 (HEPES)
Method: As an indication of relative solubility, the turbidity of compounds in aqueous solutions is assessed. To assess possible compound properties in different physiological compartments, such as stomach, intestine, and blood, a series of aqueous buffers with varying pH is used. Thus each compound is diluted into four different physiologically relevant buffers and solution turbidity is measured by spectrophotometry.
Compounds are dissolved at a concentration of 25 mM in dimethyl sulfoxide, then serially diluted 1:1 into a 96 well plate, diluting 10 times in pure dimethyl sulfoxide, with the final well of each row a dimethyl sulfoxide blank. In an assay plate, 99 μL of appropriate buffer is added to each well, and 1 μL of each sample dilution is added to the buffer, achieving a range of final total concentrations in aqueous solutions having different pH. The buffers used are Simulated Gastric Fluid (SGF-pH 1.5) 0.5M NaCl, pH 1.5; Simulated Intestinal fluid (SIF-pH 4.5 and pH 6.8) 0.05M NaH2PO4, pH 4.5 and 6.8; and Hepes Buffer (HEPES-pH 7.4) 10 mM HEPES, 150 mM NaCl, pH 7.4. Control compounds pyrene, estriol and propranolol HCl are also assessed. Plates are spun and then mixed for 1 minute, and the absorbance is read using a Tecan Safire II to read wavelengths in the visible range (490, 535, and 650 nm) at four locations per well, reflecting the degree of turbidity present. The average optical density for each wavelength in each well is graphed vs. compound concentration, and the concentration at which the curve crosses a threshold O.D. of 0.01 for each wavelength is reported as the endpoint turbidity assay result. The average of the three wavelengths is used to compare turbidity of compounds.

Chain of TrkA kinase (P04629 33-796): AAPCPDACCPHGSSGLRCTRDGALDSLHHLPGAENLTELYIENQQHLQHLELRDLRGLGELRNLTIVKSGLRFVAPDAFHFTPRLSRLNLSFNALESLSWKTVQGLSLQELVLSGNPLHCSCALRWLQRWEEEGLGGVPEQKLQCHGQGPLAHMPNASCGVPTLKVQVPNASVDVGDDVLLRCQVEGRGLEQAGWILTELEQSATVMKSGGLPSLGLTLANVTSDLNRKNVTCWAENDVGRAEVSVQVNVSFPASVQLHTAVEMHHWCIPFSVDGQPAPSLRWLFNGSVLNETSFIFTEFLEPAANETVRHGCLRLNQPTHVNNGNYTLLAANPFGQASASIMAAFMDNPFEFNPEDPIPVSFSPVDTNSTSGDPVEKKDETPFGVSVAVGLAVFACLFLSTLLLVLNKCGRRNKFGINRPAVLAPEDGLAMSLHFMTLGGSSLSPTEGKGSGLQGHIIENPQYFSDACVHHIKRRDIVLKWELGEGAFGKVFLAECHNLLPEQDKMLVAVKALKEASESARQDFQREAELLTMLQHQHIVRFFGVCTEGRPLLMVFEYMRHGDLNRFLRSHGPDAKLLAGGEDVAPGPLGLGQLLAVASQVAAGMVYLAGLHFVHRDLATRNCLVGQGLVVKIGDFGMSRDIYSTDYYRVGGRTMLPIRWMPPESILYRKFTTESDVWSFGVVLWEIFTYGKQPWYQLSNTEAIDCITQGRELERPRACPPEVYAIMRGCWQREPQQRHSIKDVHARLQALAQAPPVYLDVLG

Row | IC50 (TrkA kinase) [nM] | SMILES | turbidity threshold (L, M, H) 1.4 [1] | turbidity threshold (L, M, H) 4.5 [1] | turbidity threshold (L, M, H) 6.8 [1] | turbidity threshold (L, M, H) 7.4 [1]
1 | < 10 | COc1ccc(Nc2ccc(C(=O)c3c[nH]c4ncnc(NC(C)C)c34)c(F)n2)cn1 [Compound P-4066, [2-fluoro-6-[(6-methoxy-3-pyridyl)amino]-3-pyridyl]-[4-(isopropylamino)-7H-pyrrolo[2,3-d]pyrimidin-5-yl]methanone] | M (moderate solubility if the threshold concentration is 31.3 μM to 250 μM) | L (low solubility if the threshold concentration is <31.3 μM) | L (low solubility if the threshold concentration is <31.3 μM) | M (moderate solubility if the threshold concentration is 31.3 μM to 250 μM)
2 | < 100 | CNc1ncnc2[nH]cc(C(=O)c3ccc(NC4CCCCC4)nc3F)c12 [Compound P-4102, [6-(cyclohexylamino)-2-fluoro-3-pyridyl]-[4-(methylamino)-7H-pyrrolo[2,3-d]pyrimidin-5-yl]methanone] | H (high solubility if the threshold concentration is >250 μm) | M (moderate solubility if the threshold concentration is 31.3 μM to 250 μM) | M (moderate solubility if the threshold concentration is 31.3 μM to 250 μM) | M (moderate solubility if the threshold concentration is 31.3 μM to 250 μM)
3 | < 100 | CCCCNc1ncnc2[nH]cc(C(=O)c3ccc(Nc4ccc(CC)nc4)nc3F)c12 [Compound P-4100, [4-(butylamino)-7H-pyrrolo[2,3-d]pyrimidin-5-yl]-[6-[(6-ethyl-3-pyridyl)amino]-2-fluoro-3-pyridyl]methanone] | H (high solubility if the threshold concentration is >250 μm) | M (moderate solubility if the threshold concentration is 31.3 μM to 250 μM) | M (moderate solubility if the threshold concentration is 31.3 μM to 250 μM) | M (moderate solubility if the threshold concentration is 31.3 μM to 250 μM)
4 | < 100 | CCCNc1ncnc2[nH]cc(C(=O)c3ccc(Nc4cncc(OC)c4)nc3F)c12 [Compound P-4105, [2-fluoro-6-[(5-methoxy-3-pyridyl)amino]-3-pyridyl]-[4-(propylamino)-7H-pyrrolo[2,3-d]pyrimidin-5-yl]methanone] | M (moderate solubility if the threshold concentration is 31.3 μM to 250 μM) | M (moderate solubility if the threshold concentration is 31.3 μM to 250 μM) | M (moderate solubility if the threshold concentration is 31.3 μM to 250 μM) | M (moderate solubility if the threshold concentration is 31.3 μM to 250 μM)
5 | < 100 | CC(C)Nc1ncnc2[nH]cc(C(=O)c3ccc(NC4CCCCC4)nc3Cl)c12 [Compound P-4109, [2-chloro-6-(cyclohexylamino)-3-pyridyl]-[4-(isopropylamino)-7H-pyrrolo[2,3-d]pyrimidin-5-yl]methanone] | L (low solubility if the threshold concentration is <31.3 μM) | L (low solubility if the threshold concentration is <31.3 μM) | L (low solubility if the threshold concentration is <31.3 μM) | L (low solubility if the threshold concentration is <31.3 μM)
6 | < 10 | O=C(c1ccc(NC2CCC(F)(F)CC2)nc1)c1c[nH]c2ncnc(NCC(F)(F)F)c12 [Compound P-4087, [6-[(4,4-difluorocyclohexyl)amino]-3-pyridyl]-[4-(2,2,2-trifluoroethylamino)-7H-pyrrolo[2,3-d]pyrimidin-5-yl]methanone] | H (high solubility if the threshold concentration is >250 μm) | M (moderate solubility if the threshold concentration is 31.3 μM to 250 μM) | M (moderate solubility if the threshold concentration is 31.3 μM to 250 μM) | M (moderate solubility if the threshold concentration is 31.3 μM to 250 μM)
7 | < 10 | CCNc1ncnc2[nH]cc(C(=O)c3ccc(Nc4ccc(OC)nc4)nc3F)c12 [Compound P-4081, [4-(ethylamino)-7H-pyrrolo[2,3-d]pyrimidin-5-yl]-[2-fluoro-6-[(6-methoxy-3-pyridyl)amino]-3-pyridyl]methanone] | H (high solubility if the threshold concentration is >250 μm) | M (moderate solubility if the threshold concentration is 31.3 μM to 250 μM) | H (high solubility if the threshold concentration is >250 μm) | M (moderate solubility if the threshold concentration is 31.3 μM to 250 μM)
8 | < 100 | COc1ccc(Nc2ccc(C(=O)c3c[nH]c4ncnc(N[C@@H](C)c5ccc(F)cc5)c34)c(F)n2)cn1 [Compound P-4072, [2-fluoro-6-[(6-methoxy-3-pyridyl)amino]-3-pyridyl]-[4-[[(1S)-1-(4-fluorophenyl)ethyl]amino]-7H-pyrrolo[2,3-d]pyrimidin-5-yl]methanone] | M (moderate solubility if the threshold concentration is 31.3 μM to 250 μM) | L (low solubility if the threshold concentration is <31.3 μM) | L (low solubility if the threshold concentration is <31.3 μM) | L (low solubility if the threshold concentration is <31.3 μM)
9 | < 10 | CCc1ccc(Nc2ccc(C(=O)c3c[nH]c4ncnc(NCC5CC5)c34)c(F)n2)cn1 [Compound P-4118, [4-(cyclopropylmethylamino)-7H-pyrrolo[2,3-d]pyrimidin-5-yl]-[6-[(6-ethyl-3-pyridyl)amino]-2-fluoro-3-pyridyl]methanone] | H (high solubility if the threshold concentration is >250 μm) | M (moderate solubility if the threshold concentration is 31.3 μM to 250 μM) | M (moderate solubility if the threshold concentration is 31.3 μM to 250 μM) | L (low solubility if the threshold concentration is <31.3 μM)
10 | < 10 | CNc1ncnc2[nH]cc(C(=O)c3ccc(Nc4ccc(C5CC5)nc4)nc3F)c12 [Compound P-4094, [6-[(6-cyclopropyl-3-pyridyl)amino]-2-fluoro-3-pyridyl]-[4-(methylamino)-7H-pyrrolo[2,3-d]pyrimidin-5-yl]methanone] | H (high solubility if the threshold concentration is >250 μm) | L (low solubility if the threshold concentration is <31.3 μM) | M (moderate solubility if the threshold concentration is 31.3 μM to 250 μM) | M (moderate solubility if the threshold concentration is 31.3 μM to 250 μM)
11 | < 10 | CCc1ccc(Nc2ccc(C(=O)c3c[nH]c4ncnc(NCCOC)c34)c(F)n2)cn1 [Compound P-4119, [6-[(6-ethyl-3-pyridyl)amino]-2-fluoro-3-pyridyl]-[4-(2-methoxyethylamino)-7H-pyrrolo[2,3-d]pyrimidin-5-yl]methanone] | H (high solubility if the threshold concentration is >250 μm) | M (moderate solubility if the threshold concentration is 31.3 μM to 250 μM) | M (moderate solubility if the threshold concentration is 31.3 μM to 250 μM) | L (low solubility if the threshold concentration is <31.3 μM)
